{
  "source": "patent US20210361582A1",
  "about": "“COLCHICINE SALICYLATE DERIVATIVES AND METHODS OF TREATMENT” (Murray and Poole Enterprises, LTD., priority 2015, published 2021)",
  "origin": "cited, not measured here",
  "key": {"[1]": {"settings": "colchicine 0.5 mg/day in addition to statins and other standard secondary prevention therapies; 532 patients; median 3 years"}, "[2]": {"settings": "in vivo"}, "[3]": {"settings": "at 18 months; 120 patients; conventional treatment with aspirin vs plus colchicine 1.0 to 2.0 mg first day then 0.5 to 1.0 mg/day for 3 months; p=0.004"}, "[4]": {"settings": "at 18 months; 84 patients; aspirin alone vs plus colchicine 1.0-2.0 mg first day then 0.5-1.0 mg/d for 6 months"}},
  "data": [
    {"compound": "COc1cc2c(c(OC)c1OC)-c1ccc(OC)c(=O)cc1[C@@H](NC(C)=O)CC2", "note": "[colchicine, N[5,6,7,9-tetrahydro-1,2,3,10-tetratmethoxy 9-oxobenzo[a]heptalen-7-yl],(S)-acetamide]", "values": [
      {"measurement": "prevention of cardiovascular events", "setting": "[1]", "value": "appeared effective"},
      {"measurement": "bioavailability, inter patient variations", "setting": "[2]; human", "value": "20-80%"},
      {"measurement": "bioavailability", "setting": "[2]", "value": "ca. 45%"},
      {"measurement": "second peak (resorption from colon), share of totally absorbed colchicine", "setting": "[2]", "value": "about 50%"},
      {"measurement": "recurrence rate (primary end point)", "setting": "[3]", "value": 10.7, "unit": "%"},
      {"measurement": "recurrence rate (actuarial rates)", "setting": "[4]", "value": 24.0, "unit": "%"}
    ]},
    {"compound": "CC(=O)Oc1ccccc1C(=O)O", "note": "[aspirin]", "values": [
      {"measurement": "recurrence rate (primary end point)", "setting": "[3]", "value": 32.3, "unit": "%"},
      {"measurement": "recurrence rate (actuarial rates)", "setting": "[4]", "value": 50.6, "unit": "%"}
    ]}
  ]
}
